Reference: patent publication US20250270170A1, “2,3-DIMETHOXY-5-METHYL-1,4-BENZOQUINONE ALKYL ALCOHOL DERIVATIVE AND USE THEREOF” (BEIJING ANJIANXI BIO-MEDICAL TECHNOLOGY CO., LTD., priority 2021, published 2025)
Values joined by “and” are separate entries in the source; they are usually repeats but may differ in a detail not shown here. Equal values may be shown once.

Tests used:
[1] = Example 8: body weight of ECA109 tumor-bearing mice; format: in vivo, nude mice; conditions: DDP 5 mg/kg i.p. QW×4
From the text: The assay animals, calculation of tumor volume (TV), end of assay, data recording, calculation formula of tumor growth inhibition rate TGI (%), and statistical analysis method were the same as those in Example 3; the preparation of the administration formulation of the compound of formula (I) was the same as that in Example 5. […] The cells were pipetted with a pipette to disperse them evenly, and the cells were put into a 50-mL centrifuge tube, which was placed in an ice box. A 1-mL syringe was used to draw the cell suspension, which was injected subcutaneously into the axilla of the front right limb of a […]. Each animal was inoculated with 200 μL (1.0×10^7 cells/mouse) to establish an ECA109 transplanted tumor model in nude mice. After the inoculation, the animal status and tumor growth were regularly observed, and the tumor diameter was measured using an electronic vernier caliper. The data were input into an Excel spreadsheet to calculate the tumor volume. When the tumor volume reached 100 to 300 mm^3, animals in good health and with similar tumor volumes were selected and divided into groups using randomized block method. The day of grouping was regarded as the first day of the assay (D1). After the start of the assay, the tumor diameter was measured twice a week, the tumor volume was calculated, and the animal body weight was also weighed and recorded. [table]

[2] = Example 10: body weight of HT-29 tumor-bearing nude mice; format: in vivo; conditions: HT-29 model, DDP 5 mg/kg i.p. QW × 3, R01 18 mg/kg i.g. BID × 28
Method: On D1 of the assay, the HT-29 cells in the logarithmic growth phase were collected, counted and resuspended in serum-free McCoy, and the cell concentration was adjusted to 4×10^7 cells/mL. The cells were pipetted with a pipette to disperse them evenly, and the cells were put into a 50-mL centrifuge tube, which was placed in an ice box. A 1-mL syringe was used to draw the cell suspension, which was injected subcutaneously into the axilla of the front right limb of a nude mouse. Each animal was inoculated with 100 μL (4×10^6 cells/mouse) to establish a HT-29 transplanted tumor model in nude mice. After the inoculation, the animal status and tumor growth were regularly observed. On D12, the tumor diameter was measured using an electronic vernier caliper. The data were input into an Excel spreadsheet to calculate the tumor volume. Tumor-bearing mice in good health and with similar tumor volumes (103 to 179 mm^3) were selected and divided into groups using randomized block method. After the start of the assay, the tumor diameter was measured regularly, the tumor volume was calculated, and the animal body weight was also weighed and recorded.

[3] = test system: cisplatin-induced acute kidney damage in mice; assay: Example 11: serum creatinine (Cre) in cisplatin-induced acute kidney damage model; format: in vivo, C57BL/6J mice; conditions: for Serum creatinine (Cre) level after the assay, x (mean): group mean; for Serum creatinine (Cre) level after the assay, x (mean) / Serum creatinine (Cre) level after the assay: cisplatin model; for Serum creatinine (Cre) level after the assay: individual animals No. 1-7
Method: 42 male C57BL/6J mice (age: 6 to 8 weeks, body weight 18-20 g, certificate number: 11400700238365) were purchased from Si Pei Fu (Beijing) Biotechnology Co., Ltd., and raised in an SPF-grade animal room of the Institute of Materia Medica, Chinese Academy of Medical Sciences, at a temperature of 20 to 25° C., a relative humidity of 40% to 70%, and a cycle of 12 hours of light and 12 hours of dark. The animals had free access to water and food. After 3 days of normal feeding, mice with good physical conditions after the veterinary examination were selected for this assay. Before grouping, a marker was used to mark on the base of the animals' tail. After grouping, each animal was marked with an ear cutout (7 mice in each group).
Assay animals: 42 7-week-old male C57 mice were used for animal testing after an adaptive feeding.
Group 1: blank control group;
The preparation of the R01 formulation administration test solution was the same as that in Example 5: an appropriate amount of the R01 formulation was weighed according to the three dosages set in the assay, respectively, and an appropriate volume of 0.5% CMC-Na aqueous solution was added. The mixture was vortexed and sonicated until mixed evenly, to give the administration test solutions with concentrations of […], respectively, which were ready for use.
Animal testing period: 7 days (excluding adaptive feeding), hereinafter referred to as: D1-D7.
1. The first group was a solvent control group: N=7, all mice were males (the same below); • a) 0.5% solution of sodium carboxymethyl cellulose was gavagely administered from D1 to D6 (twice a day for each animal, with an interval of 8 hours between the morning and the afternoon). • b) Physiological saline was intraperitoneally injected in one-time on D4. • c) On D7, blood was collected from the orbit for euthanasia (300 ul of serum was extracted), the left kidney was fixed in formaldehyde, and the right kidney was preserved in liquid nitrogen (WB study may be carried out).
1) The concentrations of urea nitrogen and creatinine in peripheral blood serum were tested.
The body weight of the animals when being grouped for administration in each group was recorded. The body weight and the kidney weight at the end of the assay were also recorded, and the kidney coefficient was calculated. The creatinine and urea nitrogen values in the blood samples sent for testing were recorded. The kidneys were stained with HE and PAS, and the slides were scanned. A report was issued after the pathological analysis.
The assay data were calculated and processed statistically using Microsoft Office Excel 2007 software. Unless otherwise specified, the data were expressed as mean±standard error (Mean±SE), and t-test was used for comparison between two groups.

N.N.[Cl][Pt][Cl] [DDP, cisplatin]
Mean animal body weight ([1]; D1): 20.8 ± 0.4 g | Mean animal body weight ([1]; D5): 20.3 ± 0.6 g | body weight loss rate ([1]; D5): (2.1%) | Mean animal body weight ([1]; D8): 20.5 ± 0.4 g | body weight loss rate ([1]; D8): (1.4%) | Mean animal body weight ([1]; D12): 19.4 ± 0.4 g | body weight loss rate ([1]; D12): (6.7%) | Mean animal body weight ([1]; D15): 19.9 ± 0.3 g | body weight loss rate ([1]; D15): (4.3%) | Mean animal body weight ([1]; D19): 19.0 ± 0.3 g | body weight loss rate ([1]; D19): (8.5%) | Mean animal body weight ([1]; D22): 19.5 ± 0.4 g | body weight loss rate ([1]; D22): (5.9%) | Mean animal body weight ([1]; D26): 17.7 ± 0.3 g | body weight loss rate ([1]; D26): (15%) | Mean animal body weight ([1]; D29): 17.9 ± 0.3 g | body weight loss rate ([1]; D29): (14%) | Mean animal body weight ([1]; D33): 18.7 ± 0.4 g | body weight loss rate ([1]; D33): (10%) | Mean animal body weight ([1]; D36): 18.7 ± 0.3 g | body weight loss rate ([1]; D36): (10%) | Mean animal body weight ± SE ([2]; D 12 (grouping)): 17.6 ± 0.3 g | Mean animal body weight ± SE ([2]; D 15): 17.2 ± 0.2 g | body weight loss rate ([2]; D 15): (2.6%) | Mean animal body weight ± SE ([2]; D 19): 16.9 ± 0.3 g | body weight loss rate ([2]; D 19): (3.9%) | Mean animal body weight ± SE ([2]; D 22): 16.3 ± 0.3 g | body weight loss rate ([2]; D 22): (7.4%) | Mean animal body weight ± SE ([2]; D 26): 15.8 ± 0.4 g | body weight loss rate ([2]; D 26): (10%) | Mean animal body weight ± SE ([2]; D 29): 15.3 ± 0.3 g | body weight loss rate ([2]; D 29): (13%) | Mean animal body weight ± SE ([2]; D 33): 14.8 ± 0.4 g | body weight loss rate ([2]; D 33): (16%) | Mean animal body weight ± SE ([2]; D 36): 14.8 ± 0.4 g | body weight loss rate ([2]; D 36): (16%) | Mean animal body weight ± SE ([2]; D 40): 14.9 ± 0.4 g | body weight loss rate ([2]; D 40): (15%)

COC1=C(OC)C(=O)C(CCCCCCCCCCOC(=O)Cc2c(C)n(C(=O)c3ccc(Cl)cc3)c3ccc(OC)cc23)=C(C)C1=O [compound of formula (I)]
serum creatinine value ([3]; cisplatin 10 mg/kg alone (vs blank, P<0.01) or with amifostine 50 mg/kg i.p. / R01 6, 18, 36 mg/kg bid): equivalent to that of the blank control group | Serum creatinine (Cre) level after the assay, x (mean) ([3]; R01 6 mg/kg): 18.4 mg/dL | Serum creatinine (Cre) level after the assay, x (mean) ([3]; R01 18 mg/kg): 15.4 mg/dL | Serum creatinine (Cre) level after the assay, x (mean) ([3]; R01 36 mg/kg): 15.3 mg/dL | Serum creatinine (Cre) level after the assay ([3]; R01 6 mg/kg, listed as R01, 6 mg/kg): 20 mg/dl (2×) and 23 mg/dl and 26 mg/dl and 17 mg/dl and 18 mg/dl and 5 mg/dl | Serum creatinine (Cre) level after the assay ([3]; R01 18 mg/kg, listed as R01, 18 mg/kg): 15 mg/dl (2×) and 12 mg/dl (2×) and 17 mg/dl and 16 mg/dl and 21 mg/dl | Serum creatinine (Cre) level after the assay ([3]; R01 36 mg/kg, listed as R01, 36 mg/kg): 15 mg/dl (3×) and 13 mg/dl and 17 mg/dl and 16 mg/dl (2×)
